In article PMC4764977, “AZD8797 is an allosteric non-competitive modulator of the human CX3CR1 receptor” (Biochemical Journal, 2016):

Assays:
CX3CR1 [1] = target: T1, CX3CR1 (Homo sapiens, UniProt P49238); test: Equilibrium saturation binding, CHO-hCX3CR1 membranes; design: host or cells: CHO-K1; details: GTPγS added (100 μM)
T1 sequence (P49238 1-355): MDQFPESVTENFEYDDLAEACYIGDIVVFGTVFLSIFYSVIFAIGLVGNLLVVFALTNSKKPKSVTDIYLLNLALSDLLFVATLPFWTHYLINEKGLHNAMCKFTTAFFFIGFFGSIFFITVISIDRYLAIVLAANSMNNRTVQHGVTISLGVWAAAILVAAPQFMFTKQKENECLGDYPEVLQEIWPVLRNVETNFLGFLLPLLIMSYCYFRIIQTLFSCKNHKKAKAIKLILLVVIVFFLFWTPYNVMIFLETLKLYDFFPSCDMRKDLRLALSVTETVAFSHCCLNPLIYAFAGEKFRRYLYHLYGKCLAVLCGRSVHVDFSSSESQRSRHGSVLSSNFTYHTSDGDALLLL
Experimental: Cells were washed in PBS and lysed with an Ultra-Turrax Homogenizer in 50 mM Tris/HCl (pH 7.4) and 1 mM EDTA with Complete™ protease inhibitor (Roche). […] Protein concentration was determined using the BCA method (Thermo Fisher Scientific). […] The filter plate was washed in ice-cold 25 mM HEPES (pH 7.4), 5 mM MgCl2, 1 mM CaCl2 and 500 mM NaCl and dried at 50°C for 1 h. Scintillation cocktail, Optiphase Supermix (PerkinElmer) was added to each well and the radioactivity was measured using a MicroBeta Trilux reader (PerkinElmer). […] The DMSO concentration was held constant at 1%. where Kd is the radioligand dissociation constant. Saturation binding isotherms were analysed by non-linear regression and globally fitted to a hyperbolic one-site binding model taking into account both NSB and total binding to calculate the total receptor number (Bmax) and radioligand dissociation constant (Kd): […] NSB=NS·X+Background, where NS is the concentration-dependent NSB. To visualize the manner of binding of CX3CL1 and AZD8797, a diagnostic affinity ratio plot designed to compare strictly competitive behaviour with allosteric interactions was used. […] For single site competitive interactions, the resulting linear plot has the slope of 1.0. For allosteric but competitive interactions, the slope will start at 1.0 but progressively deviate from unity, eventually reaching a limit governed by the allosteric ternary complex model co-operativity factor α [21, 22].

CX3CR1 [2] = target: T1, CX3CR1; test: 125I-CX3CL1 kinetic radioligand binding, CHO-hCX3CR1 membranes; design: host or cells: CHO-K1
Experimental: Incubation times ranged from 2.5 min to 4 h. For the association experiments, the radioligand data were fitted to the following monophasic exponential association equation and the association rate (kon) was calculated using the added amounts of radioligand (L) and dissociation rate (koff) as constants. koff was measured in separate dissociation experiments. The dissociation data were fitted to the monophasic exponential decay equation: where Y0 is the binding (cpm) at time zero, X is the time and NS is the (non-specific) binding at infinite times. […] Multiple compound dissociation data were fitted to the biphasic exponential decay equation: […]

CX3CR1 [3] = target: T2, CX3CR1 (Homo sapiens, UniProt P49238); test: 125I-CX3CL1 saturation radioligand binding (CHO-hCX3CR1 membranes)
T2 chain: T1 sequence (P49238 1-355)

CX3CR1 [4] = target: T2, CX3CR1; test: 125I-CX3CL1 competition radioligand binding (CHO-hCX3CR1 membranes)
[5] = co-adding 100 μM GTPγS + 100 nM CX3CL1, two-phase model, n=2

Molecule: Nc1nc2c(ncn2[C@@H]2O[C@H](COP(=O)(O)OP(=O)(O)OP(O)(O)=S)[C@@H](O)[C@H]2O)c(=O)[nH]1 [GTPγS, guanosine 5′-[γ-thio]triphosphate, reference compound]
- Effect on [3H]AZD8797 and 125I-CX3CL1 equilibrium saturation binding (CX3CR1 [1]): no effect
- k1off of 125I-CX3CL1 dissociation (CX3CR1 [2]; [5]): 0.55 min⁻¹
- k2off of 125I-CX3CL1 dissociation (CX3CR1 [2]; [5]): 0.0084 min⁻¹
- Effect on 125I-CX3CL1 association rate (kon) (CX3CR1 [2]; results not shown): no effect
- Effect on maximal binding of 125I-CX3CL1 in association experiments (CX3CR1 [2]; results not shown): no effect

B1: CX3CL1 (fractalkine) chemokine domain (protein)
chain: LAGQHHGVTKCNITCSKMTSKIPVALLIHYQQNQASCGKRAIILETRQHRLFCADPKEQWVKDAMQHLDRQAAALTRNGGTF
modifications: 125I-labelled CX3CL1
- Kd (CX3CR1 [3]): 190 pM

B2: CX3CL1 (fractalkine) chemokine domain (protein)
chain: B1 chain
- Ki (CX3CR1 [4]): 290 pM
